In patent publication US20060263895A1, “Method for monitoring the stereoselectivity and relative rate of organic chemical reactions” (priority 2005, published 2006):

Tests used:
[1] = Double cuvette-ISES (in situ enzymatic screening) of Co(III)-salen mediated HKR of (±)-propylene oxide; details: for % ee of the 1,2-propanediol product, as predicted by double-cuvette ISES (upper number): bilayer of pH 8.6 buffer over 7.2 M epoxide in CHCl3, 0.25 mol % catalyst, 15-35 min, + = (S), − = (R)
Method: Aqueous reporting layers. containing TBADH/NADP+ (cuvette 1) and HLADH/NAD+ (cuvette 2), respectively, are then added. The increase in absorbance at 340 nm can be followed for several such sets in parallel by UV-vis spectrophotometry. The kinetic data are then used to make the double-cuvette ISES predictions.
A general procedure for double cuvette-ISES to estimate both enantioselectivities and relative rates for an array of catalysts being screened in parallel is presented below. The hydrolytic kinetic resolution (HKR) of (±) propylene oxide was chosen as model reaction.
Typically, quartz cuvettes with one cm light paths and with nominal one mL volumes were used. For each catalyst, a two cuvette screen was performed, with cuvette A containing HLADH, as (S)-propanediol-selective reporting enzyme, and cuvette B containing TBADH, as a (R)-propanediol-selective reporting enzyme. For each cuvette, the final volume was 800 μL (300 μL of organic layer; 500 μL of aqueous layer).
Both cuvettes A and B had the following composition: 150 μL (2.15 mmol) of (±)-propylene oxide (7.2 M in organic layer), 150 μL of CHCl3 and 0.25 mol % Co(III)-salen catalyst. The total organic layer volume was maintained as 300 μL in all catalyst screens.
(i) Cuvette A: 0.35 U HLADH (17.6 μL from a stock solution (0.02U/μL)), 7.2 mM β-NAD+(16.5 μL from a 220 mM stock) and 465.8 μL of 50 mM sodium pyrophosphate buffer, pH 8.8. The final pH was 8.6.
(ii) Cuvette B: 0.35 U TBADH (15.8 μL from a stock solution (0.022U/μL)) of, 2.2 mM β-NADP+ (5 μL from a 220 mM stock) and 479.5 μL of 50 mM sodium pyrophosphate buffer, pH 8.8. The final pH was 8.6. The total volume of the aqueous layer was maintained as 500 μL in both cuvettes in all ISES experiments.
C. Step by Step Protocol: A catalyst stock solution (22 μmol of catalyst in 620 μL CHCl3) was made up in a 1.5 ml microcentrifuge tube, and stored on ice, along with a stock of (±)-propylene oxide, in a separate tube. The organic layers were prepared by briefly vortexing 150 μL (5.4 μmol, 0.25 mol %) of the catalyst stock in CHCl3 with 150 μL (2.15 mmol) of (±)-propylene oxide in iced microcentrifuge tubes. These were loaded into 1 mL quartz cuvettes using precooled (refrigerator), disposable 1 mL syringes. The aqueous layers were then layered on top of the organic layers, by syringe, down the walls of the cuvette.

[2] = [total 1,2-propanediol] in aqueous ISES layer by 1H NMR; details: for [diol] (mM) @ 15 min: aqueous ISES layer, 1H NMR, t = 15 min; for Norm.: normalized to the catalyst derived from salen 3b (rate 1.0)
Method: The concentration of 1,2-propanediol in the aqueous layer was estimated under typical ISES conditions using 1H NMR spectroscopy. The bilayer was prepared as usual for double cuvette-ISES (Section V), but for the substitution of D2O for H2O in the buffer, and the elimination of the dehydrogenase enzymes. After 15 min, the aqueous layer (300 μL of 500 μL total) was withdrawn and mixed with a fresh solution of imidazole of known concentration (also 300 μL in D2O), as an internal concentration standard. Accumulation of the 1H NMR spectrum, followed by integration and quantitation, provided an experimental measure of [total diol] in the aqueous reporting layer at t=15 minutes for the catalyst under investigation. The observed diol concentrations for ten catalysts examined in this way are collected in Table S6, below. These have been normalized to the value for the catalyst derived from salen 3b (arbitrarily assigned a rate of 1.0).

[3] = HKR of (±)-propylene oxide under standard neat 'Jacobsen conditions' (NMR conversion, chiral HPLC ee); details: for NMR conv. (time) / % ee (HPLC): loading 0.25 mol %; for % ee (HPLC) / % ee of the 1,2-propanediol product, as observed by chiral HPLC (lower number): + = (S), − = (R); for % ee of the 1,2-propanediol product, as observed by chiral HPLC (lower number): neat propylene oxide, 0.55 equiv. H2O, 0.25 mol % catalyst, 3 h reaction time
Method: Salens in the fully synthetic, 42 member focused library that led to catalysts with appreciable activity, as indicated by double cuvette-ISES, were also evaluated ‘outside of the cuvette,’ under conditions more typically employed in HKR reactions. Specifically, these Co(III)-salen catalysts were evaluated in the HKR of (±)-propylene oxide, under neat conditions, similar to those described by Jacobsen and coworkers. Reactions were arbitrarily stopped after 3 hours, to obtain the enantiopurity of the 1,2-propanediol product at relatively early reaction times, for comparison with ISES predictions.
A typical procedure follows: To the Co(III)-salen catalyst derived from 7e (5.4 mg, 5.4 μmol, 0.25 mol %) and (±)-propylene oxide (125 mg, 2.15 mmol) at 0° C., was added water (21 μL, 1.18 mmol, 0.55 equiv.). The reaction mixture was securely capped, and allowed to warm to room temperature and stirred, most commonly for a total of 3 hours. Percent conversion at 3 hours was evaluated by 1H NMR of an aliquot (cooled to 0° C. for the transfer), in CDCl3. In most of these cases, the conversion was low enough after 3 hours, that the unreacted epoxide (bp 32° C.) was of relatively low ee, and was therefore removed by evaporation under aspirator vacuum. When the conversion was less than 5% by NMR after 3 hours, reactions were continued for longer times.
Upon termination of the reaction, the diol product was isolated by Kugelrohr distillation (˜120° C.-oven temp; 0.1 torr). To determine ee, the isolated diol was derivatized using p-bromobenzoyl imidazole (2.2 equiv.) in THF in the presence of NaH (4 equiv.) at room temperature for 5 min. The bis(p-bromobenzoate) esters obtained following sequential washes with 1 N HCl and saturated sodium bicarbonate, were of sufficient purity to be used directly for chiral HPLC analysis (Chiralcel OD, 99% […]). [drawing 23] [drawing 24] [drawing 25] [drawing 26] [drawing 27]

[4] = reaction stopped at the time given (mostly 3 h)

CC(C)(C)c1cc(C=NC[C@@H](N=Cc2cc(C(C)(C)C)cc(C(C)(C)C)c2O)c2ccccc2)c(O)c(C(C)(C)C)c1 [Salen 2a, N,N′-Bis(3′,5′-di-tert-butylsalicylidene)-(1S)-phenyl-1,2-ethylenediamine]
% ee of the 1,2-propanediol product, as predicted by double-cuvette ISES (upper number) [1]: −97 % ee
[diol] (mM) @ 15 min [2]: 27.5 mM
Norm. [2]: 0.29
NMR conv. (time) ([3]; 3 h): 17 (3 h) %
% ee (HPLC) [3, 4]: −93 (R) % ee
% ee of the 1,2-propanediol product, as observed by chiral HPLC (lower number) [3]: −93 % ee

CC(C)(C)c1cccc(C=NC[C@@H](N=Cc2cccc(C(C)(C)C)c2O)c2ccccc2)c1O [Salen 2b, N,N′-Bis(3′-tert-butylsalicylidene)-(1S)-phenyl-1,2-ethylenediamine]
% ee of the 1,2-propanediol product, as predicted by double-cuvette ISES (upper number) [1]: −73 % ee
[diol] (mM) @ 15 min [2]: 22 mM
Norm. [2]: 0.23
NMR conv. (time) ([3]; 3 h): 26 (3 h) %
% ee (HPLC) [3, 4]: −75 (R) % ee
% ee of the 1,2-propanediol product, as observed by chiral HPLC (lower number) [3]: −75 % ee

CC(C)(C)c1cccc(C=NC[C@H](Cc2ccccc2)N=Cc2cccc(C(C)(C)C)c2O)c1O [Salen 3b, N,N′-Bis(3′-tert-butylsalicylidene)-(1S)-benzyl-1,2-ethylenediamine]
% ee of the 1,2-propanediol product, as predicted by double-cuvette ISES (upper number) [1]: +70 % ee
[diol] (mM) @ 15 min [2]: 96 mM
Norm. [2]: 1.0
% ee (HPLC) [3, 4]: +57 (S) % ee
% ee of the 1,2-propanediol product, as observed by chiral HPLC (lower number) [3]: +57 % ee

Oc1c(C=NC[C@H](Cc2ccccc2)N=Cc2ccc3ccccc3c2O)ccc2ccccc12 [Salen 3d, N,N′-Bis(1′-hydroxy-2′-naphthylidene)-(1S)-benzyl-1,2-ethylenediamine]
% ee of the 1,2-propanediol product, as predicted by double-cuvette ISES (upper number) [1]: −54 % ee
NMR conv. (time) ([3]; 3 h): 10 (3 h) %
% ee (HPLC) [3, 4]: −30 (R) % ee
% ee of the 1,2-propanediol product, as observed by chiral HPLC (lower number) [3]: −30 % ee

CC(C)(C)c1cccc(C=NC[C@H](Cc2cccc3ccccc23)N=Cc2cccc(C(C)(C)C)c2O)c1O [Salen 4b, N,N′-Bis(3′-tert-butylsalicylidene)-(1S)-(α-naphthylmethyl)-1,2-ethylenediamine]
% ee of the 1,2-propanediol product, as predicted by double-cuvette ISES (upper number) [1]: +91 % ee
[diol] (mM) @ 15 min [2]: 98 mM
Norm. [2]: 1.02
NMR conv. (time) ([3]; 3 h): 50 (3 h) %
% ee (HPLC) [3, 4]: +59 (S) % ee
% ee of the 1,2-propanediol product, as observed by chiral HPLC (lower number) [3]: +59 % ee

Oc1c(I)cc(I)cc1C=NC[C@H](Cc1cccc2ccccc12)N=Cc1cc(I)cc(I)c1O [Salen 4e, N,N′-Bis(3′,5′-diiodosalicylidene)-(1S)-(α-naphthylmethyl)-1,2-ethylenediamine]
% ee of the 1,2-propanediol product, as predicted by double-cuvette ISES (upper number) [1]: +43 % ee
ISES rate in the HLADH cuvette ([1]; over 35 min): 18.1 mAbs min−1
NMR conv. (time) ([3]; 24 h): 6 (24 h) %
% ee (HPLC) [3, 4]: +14 (S) % ee
% ee of the 1,2-propanediol product, as observed by chiral HPLC (lower number) [3]: +14 % ee

Oc1cc(OCc2ccccc2)ccc1C=NC[C@H](Cc1cccc2ccccc12)N=Cc1ccc(OCc2ccccc2)cc1O [Salen 4f, N,N′-Bis(4′-benzyloxysalicylidene)-(1S)-(α-naphthylmethyl)-1,2-ethylenediamine]
% ee of the 1,2-propanediol product, as predicted by double-cuvette ISES (upper number) [1]: +57 % ee
NMR conv. (time) ([3]; 21 h): 24 (21 h) %
% ee (HPLC) [3, 4]: +51 (S) % ee
% ee of the 1,2-propanediol product, as observed by chiral HPLC (lower number) [3]: +51 % ee

Oc1c(I)cc(I)cc1C=NC[C@H](Cc1ccc2ccccc2c1)N=Cc1cc(I)cc(I)c1O [Salen 5e, N,N′-Bis(3′,5′-diiodosalicylidene)-(1S)-(β-naphthylmethyl)-1,2-ethylenediamine]
% ee of the 1,2-propanediol product, as predicted by double-cuvette ISES (upper number) [1]: +35 % ee
NMR conv. (time) ([3]; 3 h): 3 (3 h) %
% ee (HPLC) [3, 4]: −5 (R) % ee
% ee of the 1,2-propanediol product, as observed by chiral HPLC (lower number) [3]: −5 % ee

CO[C@H]1[C@@H]2OC(C)(C)O[C@@H]2COC1(CN=Cc1cc(C(C)(C)C)cc(C(C)(C)C)c1O)N=Cc1cc(C(C)(C)C)cc(C(C)(C)C)c1O (some centres unmarked) [Salen 6a, N,N′-Bis(3′,5′-di-tert-butylsalicylidene)-3-O-methyl-4,5-O-isopropylidene-1,2-dideoxy-Dfructopyranosyl-1,2-diamine]
% ee of the 1,2-propanediol product, as predicted by double-cuvette ISES (upper number) ([1]; listed as 6a*): +77 % ee
NMR conv. (time) ([3]; 3 h, listed as 6a*): 12 (3 h) %
% ee (HPLC) ([3]; reaction stopped at the time printed in the row (mostly 3 h), listed as 6a*): +69 (S) % ee
% ee of the 1,2-propanediol product, as observed by chiral HPLC (lower number) ([3]; listed as 6a*): +69 % ee

CO[C@H]1[C@@H]2OC(C)(C)O[C@@H]2COC1(CN=Cc1cccc(C(C)(C)C)c1O)N=Cc1cccc(C(C)(C)C)c1O (some centres unmarked) [Salen 7b, N,N′-Bis(3′-tert-butylsalicylidene)-3-O-methyl-4,5-O-isopropylidene-1,2-dideoxy-Dfructopyranosyl-1,2-diamine]
% ee of the 1,2-propanediol product, as predicted by double-cuvette ISES (upper number) [1]: −28 % ee
NMR conv. (time) ([3]; 3 h): 9 (3 h) %
% ee (HPLC) [3, 4]: −40 (R) % ee
% ee of the 1,2-propanediol product, as observed by chiral HPLC (lower number) [3]: −40 % ee

CO[C@H]1[C@@H]2OC(C)(C)O[C@@H]2COC1(CN=Cc1c(O)ccc2ccccc12)N=Cc1c(O)ccc2ccccc12 (some centres unmarked) [Salen 7c, N,N′-Bis(2′-hydroxy-1′-naphthylidene)-3-O-methyl-4,5-O-isopropylidene-1,2-dideoxy-Dfructopyranosyl-1,2-diamine]
ISES signal ([1]; over 35 min): § (These catalysts gave ISES signals <20 mAbs min−1 over 35 min.)
NMR conv. (time) ([3]; time not given): none obs

N,N′-Bis(3′-tert-butylsalicylidene)-[1R-(1α,2α,5α)]-2-amino-7,7-dimethyl-2-bicyclo[3.3.1]heptaneethanamine [Salen 1b]
% ee of the 1,2-propanediol product, as predicted by double-cuvette ISES (upper number) [1]: +68 % ee
% ee (HPLC) [3, 4]: +75 (S) % ee
% ee of the 1,2-propanediol product, as observed by chiral HPLC (lower number) [3]: +75 % ee
